The test system of one data set is rgRSV224 virus. In words: Antiviral activity: rgRSV224 (GFP-expressing RSV) replication in HeLa cells, GFP expression measured three days post-virus exposure. The note with it: human respiratory syncytial virus, 72 h, read-out: WT activity pEC50 (converted). In kind it is cell-based. The method, then:
(§1) Black 96-well clear-bottom microtiter plates (Corning, Amsterdam, The Netherlands) were filled in duplicate using a customized robot system with serial 4-fold dilutions of compound in a final volume of 50 μl culture medium [RPMI medium without phenol red, 10% FBS, 0.04% gentamycin (50 mg/ml) and 0.5% DMSO]. Then, 100 μl of a HeLa cell suspension (5×10^4 cells/ml) in culture medium was added to each well followed by the addition of 50 μl rgRSV224 (MOI=0.02) virus in culture medium using a multidrop dispenser (Thermo Scientific, Erembodegem, Belgium). rgRSV224 virus is an engineered virus that includes an additional GFP gene (Hallak et al, 2000) and was in-licensed from the NIH (Bethesda, Md., USA). Medium, virus- and mock-infected controls were included in each test. Cells were incubated at 37° C. in a 5% CO2 atmosphere. Three days post-virus exposure, viral replication was quantified by measuring GFP expression in the cells by a MSM laser microscope (Tibotec, Beerse, Belgium). The EC50 was defined as the 50% inhibitory concentration for GFP expression. In parallel, compounds were incubated for three days in a set of white 96-well microtitier plates (Corning) and the cytotoxicity of compounds in HeLa cells was determined by measuring the ATP content of the cells using the ATPlite kit (PerkinElmer, Zaventem, Belgium) according to the manufacturer's instructions. The CC50 was defined as the 50% concentration for cytotoxicity.

The next data set can be described thus: in vitro. Type of data set: cell-based. Conditions: human. The method, then: as §1

In general, melting point refers to the temperature of the solid-liquid transition. A word on the CC50: it is the concentration that lowers cell viability or growth by half. High values mean better tolerance by the cells, low ones harm at low concentration.

`CC(C)CCn1c(Cn2c(=O)n(-c3ccncc3F)c3ccncc32)nc2nc(Cl)ccc21` [Compound P26, 3-((5-chloro-1-isopentyl-1H-imidazo[4,5-b]pyridin-2-yl)methyl)-1-(3-fluoropyridin-4-yl)-1H-imidazo[4,5-c]pyridin-2(3H)-one] returned a melting point of 123.79 °C. In addition, the EC50 in the data set on rgRSV224 virus is 25.1 nM. Also, the CC50 at 3 days in the data set “in vitro” was greater than 100000 nM.

Compound `N#CCCCn1c(Cn2c(=O)n(-c3ccc(Cl)cc3)c3ccncc32)cc2cc(Cl)ccc21` [Compound P39, 4-(5-chloro-2-((1-(4-chlorophenyl)-2-oxo-1H-imidazo[4,5-c]pyridin-3(2H)-yl)methyl)-1H-indol-1-yl)butanenitrile] registered a melting point of 210.8 °C. Besides, the EC50 in the data set with rgRSV224 virus is 3.98 nM. This compound also showed a CC50 at 3 days in “in vitro” of 25100 nM.

The compound `O=c1n(Cc2cc3cc(Cl)ccc3n2CCCCF)c2cnccc2n1-c1ccc(Cl)cc1` [Compound P34, 3-((5-chloro-1-(4-fluorobutyl)-1H-indol-2-yl)methyl)-1-(4-chlorophenyl)-1H-imidazo[4,5-c]pyridin-2(3H)-one] yielded a melting point of 168 °C. For the same compound, the EC50 in the data set with rgRSV224 virus is 31.6 nM. The compound further came in with a CC50 at 3 days in the data set “in vitro” greater than 100000 nM.

The values above are taken from US9845321B2, “1,3-dihydro-2H-benzimidazol-2-one derivatives substituted with heterocycles as respiratory syncytial virus antiviral agents” (JANSSEN SCIENCES IRELAND UC, priority 2012, dated 2017).
